Measured values: patent US7208479B2, “Peritoneal dialysis solution containing modified icodextrins” (Baxter International, Inc., priority 1998, dated 2007)

Legend:
[1] = Stability under sterilization conditions: absorbance (284 nm) variation after sterilization (121° C. 45 min); type: physicochemical
Procedure: The products were tested for stability under sterilization conditions at neutral pH. A significant reduction of absorbance variation at 284 nm (Δ Abs) after sterilization is observed for the reduced compounds. The reduced compounds from Example 1 are listed as HMW1 red, HMW2 red and LMW red in Table 1.
Utilizing the three different samples of maltodextrins discussed above with respect to Example 1, oxidation reactions were carried out on each sample by dissolving 15 grams of maltodextrin in 30 ml of water and combining the starch solution with an effective amount of NaOCl in 70 ml of a solution containing sodium hydroxide and having a pH of 8±0.5 at a temperature of 43° C. The combined solutions were allowed to stand for approximately 2 hours and the product solution was purified by gel permeation chromatography. Again, the products were analyzed using ^13C NMR spectroscopy and were tested for stability under sterilization conditions as illustrated in Table 1. While the oxidation products, HMW1 ox HMW2 ox and LMW ox show contrasting results, this is attributed to the high molecular weight oxidized products not being completely purified.
The stability of one product shown in Table 3 was tested for stability under sterilization conditions and the observed variation at 284 nm is compared with that of glucose and methyl glycoside.

[2] = In vitro dialysis test predictive of dialytic efficiency: volume increase inside dialysis bag (Spectra Pore membrane, cut-off 500 Dalton); details: 37° C.
Procedure: In an in vitro test predictive of the dialytic efficiency of the osmotic agents described above, small dialysis bags with Spectra Pore membrane with a cut-off 500 Dalton (diameter 15 mm, 15 cm high) were filled with 3 ml of water solutions at different concentrations (2.5, 5.0% w/v of the samples). The bags were immersed in 200 ml of distilled water and 37° C. while stirring the extra dialysis solution. At given times (0, 1, 2, 3, 4, 5, 6 hours), the increase in the volume inside the dialysis bag was evaluated by weight and expressed as a percentage increase compared to the starting volume (Δw %).

[3] = 2.5% solution at pH 7 (footnote *), sterilization 121° C. 45 min
[4] = Table 4, 2.5% (w/v), sterilization 121° C. 45 min
[5] = 2.5% w/v, listed as α-methly-gluc.
[6] = 2.5% w/v, listed as β-methly-gluc.

Row | Molecule | ΔAbs (pH 6.5–7.5) [1, 3] | ΔAbs neutra (pH 6.5–7.5) [1, 4] | Δw % 1 h ([2]; 2.5% w/v) | Δw % 2 h ([2]; 2.5% w/v) | Δw % 3 h ([2]; 2.5% w/v) | Δw % 4 h ([2]; 2.5% w/v) | Δw % 5 h ([2]; 2.5% w/v) | Δw % 6 h ([2]; 2.5% w/v) | Δw % 1 h ([2]; 5% w/v) | Δw % 2 h ([2]; 5% w/v) | Δw % 3 h ([2]; 5% w/v) | Δw % 4 h ([2]; 5% w/v) | Δw % 5 h ([2]; 5% w/v) | Δw % 6 h ([2]; 5% w/v) | other results
1 | O=C1O[C@H](CO)[C@@H](O)[C@H](O)[C@H]1O [D(+)-Gluconolactone] | 0.01 |  |  |  |  |  |  |  |  |  |  |  |  |  | 
2 | O=C[C@H](O)[C@@H](O)[C@H](O)[C@H](O)CO [Glucose] | 0.98 | 0.07 | 15.3% | 34.2% | 43.4% | 57.3% | 74.2% | 90.9% |  |  |  |  |  |  | ΔAbs (pH 6.5–7.5) ([1]; 5% solution, after minus before sterilization 121° C. 45 min, pH 6.5–7.5): 2.54 ± 0.78; ΔAbs (pH 5.5) ([1]; 5% solution, sterilization 121° C. 45 min, pH 5.5): 2.36 ± 0.96; ΔAbs neutra (pH 6.5–7.5) ([1]; Table 4, 5% (w/v), sterilization 121° C. 45 min): 2.43 ± 0.9
3 | O=P(O)(O)O[C@H]1O[C@H](CO)[C@@H](O)[C@H](O)[C@H]1O [gluc.-1-phos., glucose-1-phosphate] |  |  | 35.8% | 53.6% | 76.3% | 95.9% | 120.1% | 144.1% |  |  |  |  |  |  | 
4 | COC1OC(CO)C(O)C(O)C1O (stereo not drawn) [α-methyl-gluc.] |  |  |  |  |  |  |  |  | 30.9% | 60.7% | 86.5% | 107.9% | 123.2% | 142.0% | Δw % 1 h [2, 5]: 21.8%; Δw % 2 h [2, 5]: 39.2%; Δw % 3 h [2, 5]: 55.4%; Δw % 4 h [2, 5]: 67.64%; Δw % 5 h [2, 5]: 79.5%; Δw % 6 h [2, 5]: 92.1%
5 | COC1OC(CO)C(O)C(O)C1O (stereo not drawn) [β-methyl-gluc.] |  |  |  |  |  |  |  |  | 45% | 76.1% | 103.0% | 129.7% | 151.7% | 174.9% | Δw % 1 h [2, 6]: 34.0%; Δw % 2 h [2, 6]: 50.3%; Δw % 3 h [2, 6]: 63.7%; Δw % 4 h [2, 6]: 67.6%; Δw % 5 h [2, 6]: 77.7%; Δw % 6 h [2, 6]: 86.5%
6 | Methyl glycoside |  | 0.01 |  |  |  |  |  |  |  |  |  |  |  |  | 
